Experimental data from article PMC4467461, “Small-molecule activation of SERCA2a SUMOylation for the treatment of heart failure” (Nature Communications, 2015).

Biological target: T1, SUMO E1 (Homo sapiens, UniProt Q9UBE0+Q9UBT2)
T1 construct: purchased R&D Systems
T1 sequence (Q9UBE0 1-346): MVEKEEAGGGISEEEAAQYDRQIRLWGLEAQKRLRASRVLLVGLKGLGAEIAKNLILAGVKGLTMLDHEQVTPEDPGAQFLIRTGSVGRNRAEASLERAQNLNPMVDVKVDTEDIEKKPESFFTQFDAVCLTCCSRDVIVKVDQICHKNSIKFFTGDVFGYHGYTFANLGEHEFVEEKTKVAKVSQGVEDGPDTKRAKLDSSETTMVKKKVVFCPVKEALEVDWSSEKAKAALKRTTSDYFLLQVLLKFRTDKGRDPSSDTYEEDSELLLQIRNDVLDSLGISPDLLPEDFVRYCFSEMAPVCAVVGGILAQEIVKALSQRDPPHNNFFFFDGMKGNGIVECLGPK
T1 sequence (Q9UBT2 1-640): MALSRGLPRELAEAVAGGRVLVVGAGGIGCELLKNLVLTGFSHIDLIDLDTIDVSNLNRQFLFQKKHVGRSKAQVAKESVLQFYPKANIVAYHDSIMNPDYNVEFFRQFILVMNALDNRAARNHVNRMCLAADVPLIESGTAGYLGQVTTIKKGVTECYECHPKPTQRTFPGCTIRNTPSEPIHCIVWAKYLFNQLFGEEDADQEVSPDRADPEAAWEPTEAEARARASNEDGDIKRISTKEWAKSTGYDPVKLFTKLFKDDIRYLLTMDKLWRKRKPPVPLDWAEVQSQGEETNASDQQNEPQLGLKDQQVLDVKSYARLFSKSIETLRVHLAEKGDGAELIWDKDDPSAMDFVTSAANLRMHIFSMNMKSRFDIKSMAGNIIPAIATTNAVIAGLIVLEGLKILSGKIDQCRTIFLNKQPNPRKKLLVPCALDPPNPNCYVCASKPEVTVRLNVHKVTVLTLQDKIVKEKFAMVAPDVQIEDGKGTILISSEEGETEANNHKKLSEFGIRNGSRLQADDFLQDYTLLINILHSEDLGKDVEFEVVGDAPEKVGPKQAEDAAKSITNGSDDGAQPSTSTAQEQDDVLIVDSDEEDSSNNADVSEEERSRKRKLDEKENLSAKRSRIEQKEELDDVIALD
Experiment: In-vitro E1-SUMO-1 and E1-dependent E2-SUMO-1 thioester formation (gel shift / western blot)
Assay type: biochemical
Experimental: Figure 3 SUMO-specific activating enzyme, E1, is a direct target of N106. Mechanism of action of N106 on individual steps in the SUMOylation cascade in vitro. (a) Inorganic pyrophosphate resulting from ATP hydrolysis in E1-catalysed SUMO-1 activation in the presence of increasing concentration of N106 compound was assessed by fluorogenic pyrophosphate assay kit. Recombinant human SUMO-specific E1 (0.05 μM), human Ubc9 (0.25 μM), human SUMO-1 (12.5 μM) and ATP (1 mM) were incubated with increasing concentration of N106 for 30 min at 37 °C and quantified using a fluorescence microplate reader. (b) The SAE2-SUMO-1 conjugation was detected followed by western blotting with anti-SAE2 antibodies. SUMO E1 (0.05 μM), SUMO-1 (12.5 μM) and ATP (1 mM) were co-incubated with increasing concentration of N106 for 30 min at 37 °C. The reaction mixtures were separated on 7.5% SDS–PAGE gel under non-reducing conditions. (c) E2-SUMO-1 conjugation was visualized by western blotting with anti-Ubc9 antibody. SUMO E1 (0.05 μM), Ubc9 (0.25 μM), SUMO-1 (12.5 μM) and ATP (1 mM) were incubated without or with increasing concentration of N106 for 30 min at 37 °C. […] (e) ATP hydrolytic activity of WT and mutant SUMO E1 are determined. (f) The E1-SUMO-1 conjugation was detected followed by western blot analysis with anti-SAE2 antibody. *The SAE2-SUMO-1 conjugated bands. […]
Biochemical activity of SUMO-specific E1 enzymes was examined by ATPase assay and in-vitro gel-shifting assays. ATP hydrolysis activity of E1 enzymes was measured by using pyrophosphate assay kit (Abcam Inc.). […] The E1-thioester formation was analysed in reaction mixtures containing 0.05 μM E1, 12.5 μM SUMO-1 and 1 mM ATP with N106 or DMSO. The E1-dependent E2-SUMO-1 thioester formation was assessed using reaction containing 0.05 μM E1, 0.25 μM E2, 12.5 μM SUMO-1 and 1 mM ATP with N106 or DMSO. Assays were incubated at 37 °C for 30 min and were mixed with non-reducing sample buffer, and analysed in non-reducing condition. Western blotting using antibodies against SAE2 and Ubc9 detected the SUMO conjugations. […]

COc1ccc(-c2nnc(Nc3nc4c(OC)cccc4s3)o2)cc1 [Compound N106, N-(4-methoxybenzo[d]thiazol-2-yl)-5-(4-methoxyphenyl)-1,3,4-oxadiazol-2-amine]
maximal tolerated doses for in-vitro thioester formation between the SUMO E1 and SUMO-1 (30 min at 37 °C): ~20 µM
SUMO-1 conjugation to SUMO E1 and E1-dependent thioester bond formation between SUMO E2 and SUMO-1 (at 50 μM concentration): less pronounced
SUMO-1 conjugation to SUMO E1 and E1-dependent thioester bond formation between SUMO E2 and SUMO-1 (at over 100 μM concentration): inhibited
